“Also recorded” adds a separate entry of the source.

Series [1] relates to islet cells / aortal endothelial cells. The experiment in a line: Chromium release cytotoxicity assay with IS-CD8+ effector cells. Type of series: cell-based, mouse. To be noted: for killing of endothelial cells isolated from NOD aorta by IS-CD8+ cells: 0.1 μM exogenous peptide. Here is the method: Chromium release cytotoxicity assay—Pancreatic islets or monolayers of cultured aortal endothelial cells were dispersed into single-cell suspension by incubation in cell-dissociation buffer (Sigma), labeled with 100 μCi of Na2^51CrO4 (ICN Pharmaceuticals, Costa Mesa, Calif.) in 200 μl of complete Click's medium containing 5% FCS for 2 h at 37° C., washed three times, and co-cultured for 8-12 hours in 96-well plates (10^4 targets per well in 200 μl of Click's medium with 5% FCS) with effector IS CD8^+ cells at different effector-to-target ratios with different concentrations of InsB^15-23 peptide. To confirm the cytotoxic potential of IS-CD8^+ cells, labeled P815 mastocytoma (H2^d)cells were loaded with different concentrations of InsB^15-23 peptide and used as targets in the 4 hrs cytotoxicity assay. Specific cytotoxicity was based on the measurement of ^51Cr release in 100 μl aliquots of cell-free supernatant using a gamma-counter (Wallac, Turku, Finland) and calculated using the formula: Specific Cytotoxicity (%)=[(Experimental Release−Spontaneous Release)/(Maximum Release−Spontaneous Release)]×100%.

Series [2] concerns IS-CD8^+ cells adhesion to aortal endothelium from NOD mice. The experiment in a line: Parallel plate flow chamber adhesion assay under shear stress. Type of series: cell-based, mouse. How it is done: Primary vascular endothelium cell culture—Isolation and culture of vascular endothelium from mouse aorta was performed as described (16). Briefly, neutralized collagen extracellular matrix was aliquoted into 24-well plates, allowed to gel at 37° C. for 60 min, and equilibrated overnight with complete endothelial cell medium consisting of complete Click's medium with 20% FCS, and 50 μg/ml of Endothelial Cell Growth Supplement (Becton-Dickinson). The segments of thoracic aorta from adult NOD mice were placed endothelial-side down onto the collagen gel. Thirty-six hours later, 1 ml of complete endothelial cell medium was carefully added. After 3-5 days, the collagen gel was digested with a 0.3% collagenase H (Sigma) solution and the released cells were transferred to a T25 tissue culture flask. After reaching confluence, cells were detached by incubation with cell-dissociation buffer (Sigma), and split at a 1:3 ratio. Passage 2 to 5 cells were used for the experiments.
Parallel Plate Flow Chamber and Adhesion Assay—Aortal endothelial cells were plated on 35 mm Costar tissue culture dishes and allowed to reach confluence. The cells were then treated for 2 -3 hrs with 100 μM of InsB^15-23 or LLO^91-99 peptides in complete endothelial cell medium. In some experiments anti-K^d (SF 1-1.1) blocking mAbs were added for 20 min before the adhesion assay. The adhesion of IS-CD8^+ cells under shear stress was examined with a parallel plate flow chamber obtained from Glycotech (Rockville, Md.) following the manufacturer's instructions and as previously described (17-19). A flow chamber with a 5-mm-wide gasket was used. Negative flow pressure was generated and controlled with an automated syringe pump (Braintree Scientific, Quincy, Mass.). IS-CD8^+ cells were labeled with CFSE as described above, pretreated in some experiments with 100 ng/ml of mouse recombinant SLC (R&D Systems) in Click's medium for 30 min, and injected at a concentration of 3×10^6/ml into the flow chamber. After IS-CD8^+ cells were allowed to settle on the plate for the indicated length of time, the flow rate was increased stepwise every 10 s in increments of […] (˜4 dynes/cm^2 shear stress) to a maximum of 7.7 ml/min (corresponding to ˜24 dynes/cm^2). Lymphocyte adhesion was visualized with a Leica inverted fluorescent microscope and recorded using a Spot-RT digital camera (Diagnostic Instruments, Sterling Heights, Mich.). Images were converted into digital movies and analyzed using Metamorph software (Universal Imaging Corp., Downingtown, Pa.). Labeled IS-CD8^+ cells were counted in frames separated by equal time intervals from the start of the stress. Adhesion of cells in each frame was determined as a fraction (%) of the initial number of cells in the frame preceding the start of flow.

In the next series the test system is IS-CD8^+ cells. Kind of series: PTx-treated IS-CD8+ cells cultured in vitro (viability, peptide response). The series is classed as cell-based, mouse. To be noted: 24 hrs after treatment (not shown). How it is done:
Treatment with pertussis toxin (PTx)—For treatment with PTx, IS-CD8^+ cells were harvested, resuspended at 10^7 cells/ml in complete medium containing 100 ng/ml of PTx (Sigma) and incubated for 2 h at 37° C. The final 30 min of incubation were combined with DiI-labeling. Treated cells were washed and injected into irradiated hosts or cultured under standard conditions in vitro.

In series [3] the test system is G-protein-coupled chemokine receptors. Kind of series: Homing of PTx-treated DiI-labeled IS-CD8+ cells after injection into NOD mice. Type of series: in vivo, mouse. How it is done:
Fluorescent tracing and morphometric analysis—For trafficking studies, IS-CD8^+ and control T cells were incubated at 10^7 cells /ml for 30 min at 37° C. in the dark in complete medium containing 5% FCS and 0.0075 mg/ml of fluorescent dye didodecyltetramethylindocarbocyanine perchlorate (DiI) (Molecular Probes, Eugene, Oreg.), then washed 3 times with PBS. For analysis of short-term proliferation and adhesion studies IS-CD8^+ cells were stained in vitro with fluorescent dye carboxyfluorescein diacetate succinimidyl ester (CFSE) (Molecular Probes, Eugene, Oreg.) as described (12). 10^7 of labeled IS-CD8^+ cells were injected i.v. into irradiated (725 Rad, 24 h in advance) animals. Mice were sacrificed at time points indicated, and their spleens, pancreata, lymph nodes, peripheral blood and lungs were removed, lymphocytes were isolated as described (5), stained with allophycocyanin-conjugated anti-CD8 (53-6.7) antibody (BD Pharmingen), and subjected to FACS analysis. Alternatively, organs were fixed in 0.1 M periodate-lysine-paraformaldehyde phosphate buffer, sucrose-saturated, and freeze-molded in OCT compound (Sakura Finetek Inc., Torrance, Calif.). […] Cells were counted within areas relevant to a given islet (see FIG. 1 for representative image). […]

As for “LLO^91-99 peptide: control K^d-binding listeriolysin-derived peptide (GYKDGNEYI; UniProt P13128 91-99, looked up, fragment)”, the “killing of endothelial cells isolated from NOD aorta by IS-CD8+ cells” value in series [1] was “no effect”.
Consider “LYLVCGERG [InsB^15-23 peptide, synthetic insulin B chain peptide]”, for which the “killing of endothelial cells isolated from NOD aorta by IS-CD8+ cells” value in series [1] was “killed”. In addition, the “lysis of islet β cells from H2k/d (C3D2) mice by IS-CD8+ cells” value in series [1] (peptide added exogenously, 50:1 effector-to-target ratio) is recorded as “restored”. Also, the “adhesion of the T cells to endothelial monolayers” value in series [2] (monolayers pre-cultivated with 100 μM peptide, no SLC, FIG. 7A) is given as “increased adhesion”. In addition, the “contact time with endothelial cells prior to start of flow needed for adhesion significantly different from no-peptide control” value in series [2] (peptide-treated monolayers, no SLC) stood at 300 s.
With pertussis toxin [PTx], in the series with IS-CD8^+ cells, the “response of PTx-treated IS-CD8+ cells to InsB15-23 peptide stimulation” value is on record as “responded normally” and the “viability of IS-CD8+ cells treated with PTx” value was “did not lose their viability”. In series [3] (NOD mice, vs untreated cells), the “distribution of PTx-treated IS-CD8+ cells in the spleen” value is given as “avoided T cell zones”. The “homing of PTx-treated IS-CD8+ cells to the pancreatic islets” value in series [3] (cells treated in vitro with 100 ng/ml PTx for 2 h, injected into NOD mice, 24 hrs after injection) is “abolishes; also recorded: practically absent from the islets”.

B1: SLC: mouse recombinant SLC (R&D Systems), chemokine CCL21 (protein, UniProt P84444 24-133, looked up)
C-C motif chemokine 21a: SDGGGQDCCLKYSQKKIPYSIVRGYRKQEPSLGCPIPAILFSPRKHSKPELCANPEEGWVQNLMRRLDQPPAPGKQSPGCRKNRGTSKSGKKGKGSKGCKRTEQTQPSRG
Take B1: in series [2] (T cells pre-treated with 100 ng/ml SLC, endothelium with InsB15-23 peptide), the “time necessary for adhesion” value turned out to be 90 s. The “baseline adhesion in the absence of specific peptide” value in series [2] (T cells pre-treated with SLC) is given as “increased”. Moreover, in series [2] (T cells pre-treated with SLC vs not exposed to SLC), the “fraction of adherent cells” value is reported as “larger”.
